Results as given in US20130029956A1, “NEW METHOD” (ASTRAZENECA AB, priority 1997, published 2013).
Marks after values point to notes of the source that are not given here.

Experiments:
Format in all cases: in vivo, human (children six months to eight years)
asthmatic children [1] = test: Phase III study of four dose regimens of budesonide nebulizing suspension and placebo in asthmatic children (Example 2); parameters: Nighttime Asthma Symptom Score: scale not given here; FEV1: unit not given here; details: for FEV1 / Evening PEF / Morning PEF / Daytime Asthma Symptom Score / Nighttime Asthma Symptom Score / Number of Days Use of Breakthrough Medication: adjusted mean change from baseline over 12 weeks; for proportion of patients discontinuing due to worsening asthma: placebo 26.3%; for total proportion of patients who were discontinued: placebo 39%
Procedure: The objectives of the study were to compare the relative efficacy and safety of budesonide in a nebulizing suspension (0.25 mg administered once a day (QD), 0.25 mg administered twice per day (BID), 0.5 mg BID or 1.0 mg QD) in pediatric asthmatic patients aged six months to eight years.
(§1) This was a multicenter, randomized double-blind, placebo-controlled, parallel-group study.
Patients were mild to moderate asthmatic children aged six months to eight years of age with a diagnosis of asthma as defined by the National Institutes of Health of the U.S. Department of Health and Human Services, including:
(a) exacerbations of cough and/or wheezing on a frequent basis, including nocturnal asthma, with infrequent severe exacerbations during the last six months; (b) daily use of at least one chronic asthma medication (which could have been an inhaled GCS) with periodic use of breakthrough medication for at least three months prior to Visit 1; and (c) basal FEV1 of […] of predicted and reversibility of […] at 15±5 minutes after a standard dose of inhaled bronchodilator for patients capable of performing consistent PFTs. […]
Primary efficacy variables were mean changes from baseline in daytime and nighttime asthma symptom scores over the 12-week treatment phase. The symptom scores were obtained as in Example 1.
Secondary efficacy variables were: (a) the number of days breakthrough (bronchodilator) medication was used; (b) spirometry test variables, including FEV1, FEF25-75, and FVC performed at clinic visits in the subset of patients capable of performing spirometry testing; (c) PEF measured daily in the morning and evening in the subset of patients capable of performing PEFs; and (d) proportion of patient discontinuations from the study.
(§2) Safety variables were: (a) reported adverse events that could be due to the drug; (b) morning basal and post-ACTH-simulation effects on plasma cortisol levels (HPA-axis function) in a subset of patients; and (c) changes in physical examinations, vital signs and clinical laboratory tests, including oropharyngeal and nasal fungal cultures.
(§3) Analysis of variance was used to compare differences between treatment groups for all efficacy variables, with the exception of patient discontinuations from the study, which was analyzed using Fisher's exact test. Analysis of variance was also used for morning basal and post-ACTH-simulation effects on plasma cortisol levels. Descriptive statistics were used to present all other safety data.
A total of 471 patients were evaluated for efficacy (all patients treated). Data are expressed as the adjusted mean change from baseline over the 12-week treatment phase, all patients treated, last value carried forward (*p≦0.050; **p≦0.010 and ***p≦0.001, versus placebo; “n” is the number of patients).

[2] = system: plasma cortisol levels (HPA-axis function); test: Basal and post-ACTH-stimulated plasma cortisol levels, Example 1; details: 0.25, 0.5, 1.0 mg once a day; baseline to week 12 versus placebo
Procedure: (§4) Safety variables were: (a) reported adverse effects that could be due to the drug; (b) morning basal and post-ACTH-simulation effects on plasma cortisol levels (HPA-axis function); and (c) changes in physical examinations, vital signs, and clinical laboratory tests, including oropharyngeal and nasal fungal cultures.
(§5) Analysis of variance was used to compare differences between treatment groups for all efficacy variables, with the exception of patient outcomes, which were analyzed using Fisher's exact test. Analysis of variance was also used for morning basal and post-ACTH-simulation effects on plasma cortisol levels. Descriptive statistics were used to present all other safety data.
[…] is stimulated by injection (intravenous for young children and intramuscular for infants) of corticotropin one hour before morning blood sampling.

asthmatic children [3] = test: Phase III study of three dose levels of once-a-day budesonide nebulizing suspension and placebo in asthmatic children (Example 1); details: for Asthma scores: Daytime / Asthma scores: Nighttime: 0-3 score; for proportion of patients discontinuing due to worsening asthma: placebo 23%; for total proportion of patients who were discontinued: placebo 28%
Procedure: The objectives of the study were to compare the relative efficacy and safety of a nebulizing suspension of budesonide (containing 0.25 mg, 0.5 mg, or 1.0 mg of budesonide per dose), administered once a day, in pediatric asthmatic patients aged six months to eight years.
as §1
Patients were asthmatic children who had not been treated with steroids in the 30 days prior to initiation of the study treatment.
Budesonide was administered once per day as a nebulized suspension, at 0.25 mg, 0.5 mg, or 1.0 mg per administration, via a Pari LC-Jet Plus® nebulizer connected to a Pari Master® compressor (Pari Respiratory Equipment, Inc., Richmond, Va.) with a face mask or a mouth piece. The placebo was the solvent used for the budesonide suspension (0.1 mg disodium edetate, 8.5 mg NaCl, 0.2 mg polysorbate, 0.28 mg anhydrous citric acid, and 0.5 mg sodium citrate per 1 ml water) but without budesonide.
Primary efficacy variables were mean changes from baseline in daytime and nighttime asthma symptom scores over the 12 week treatment phase. The symptom scores are based on the subjective evaluation by the patients or their parents based on a 0-3 rating system in which 0=no symptoms, 1=mild symptoms, 2=moderate symptoms, and 3=severe symptoms.
Secondary efficacy variables were: (a) patient outcomes, including the proportion of patients who were discontinued from the study for any reason and the proportion of patients who were discontinued from this study due to worsening asthma; (b) the number of days breakthrough (bronchodilator) medication was used; (c) spirometry test variables, including FEV1, FEF25-75 (forced expiratory flow during the middle half of the forced vital capacity in liters per second) and FVC (forced vital capacity in liters), performed at clinic visits in the subset of patients capable of performing spirometry testing; (d) PEF (peak expiratory flow in liters per minute) measured daily in the morning and evening in the subset of patients capable of performing PEF testing; (e) changes in health status measurements, including the Modified Functional Status II Scale Child Health Status Scale and the RAND General Health Index; and (f) differences in asthma-related health care utilization and indirect health care costs.
as §4, §5
Results of nighttime and daytime asthma symptom scores, and the number of days of use of breakthrough medication are presented in Table 1. Data are expressed as the adjusted mean change from baseline over the 12-week treatment phase, all patients treated, last value carried forward (*p≦0.050, **p≦0.010, and ***p≦0.001 versus placebo (PBO); “n” is number of patients). Thus improvements are indicated by negative values of these variables.

[4] = system: plasma cortisol levels (HPA-axis function); test: Basal and post-ACTH-stimulated plasma cortisol levels, Example 2; details: 0.25 mg QD, 0.25 mg BID, 0.5 mg BID, 1.0 mg QD; baseline to week 12 versus placebo
From the text: as §2, §3

[5] = 0.25 mg BID, n = 34, no unit in table
[6] = 0.5 mg BID, n = 29, no unit in table
[7] = 1.0 mg QD, n = 34, no unit in table
[8] = 0.25 mg once a day nebulized, adjusted mean change from baseline over 12 weeks, n = 91
[9] = 0.5 mg once a day nebulized, adjusted mean change from baseline over 12 weeks, n = 82
[10] = 1.0 mg once a day nebulized, adjusted mean change from baseline over 12 weeks, n = 93

## CCCC1O[C@@H]2C[C@H]3[C@@H]4CCC5=CC(=O)C=C[C@]5(C)[C@H]4[C@@H](O)C[C@]3(C)[C@]2(C(=O)CO)O1 (stereo partly drawn) [Budesonide, budesonide]
Asthmatic children [1]; 0.25 mg BID, n = 33, no unit in table
  FEV1: 0.03
Asthmatic children [1]; [5]
  Evening PEF: 19.2* ^
  Morning PEF: 23.0**
Asthmatic children [1]; 0.25 mg BID, n = 97
  Daytime Asthma Symptom Score: −0.40*
  Nighttime Asthma Symptom Score: −0.49***
  Number of Days Use of Breakthrough Medication: −5.22*** days
Asthmatic children [1]; 0.25 mg BID, p=0.029
  proportion of patients discontinuing due to worsening asthma: 13.1%
Asthmatic children [1]; 0.25 mg BID
  total proportion of patients who were discontinued: 21%
Asthmatic children [1]; 0.25 mg QD, n = 31, no unit in table
  FEV1: 0.07
Asthmatic children [1]; 0.25 mg QD, n = 32, no unit in table
  Evening PEF: 16.8*
Asthmatic children [1]; 0.25 mg QD, n = 32, no unit in table (baseline PEF in L/min)
  Morning PEF: 10.9
Asthmatic children [1]; 0.25 mg QD, n = 92
  Daytime Asthma Symptom Score: −0.28
Asthmatic children [1]; 0.25 mg QD, n = 93
  Nighttime Asthma Symptom Score: −0.28
  Number of Days Use of Breakthrough Medication: −4.39* days
Asthmatic children [1]; 0.25 mg QD
  proportion of patients discontinuing due to worsening asthma: 16.0%
  total proportion of patients who were discontinued: 21%
Asthmatic children [1]; [6]
  Evening PEF: 21.0**
  FEV1: 0.17*
  Morning PEF: 24.8**
Asthmatic children [1]; 0.5 mg BID, n = 96
  Daytime Asthma Symptom Score: −0.46**
  Nighttime Asthma Symptom Score: −0.42**
  Number of Days Use of Breakthrough Medication: −4.92** days
Asthmatic children [1]; 0.5 mg BID
  proportion of patients discontinuing due to worsening asthma: 15.3%
  total proportion of patients who were discontinued: 19%
Asthmatic children [1]; [7]
  Evening PEF: 14.1
  FEV1: 0.11
  Morning PEF: 17.1*
Asthmatic children [1]; 1.0 mg QD, n = 93
  Daytime Asthma Symptom Score: −0.37*
  Nighttime Asthma Symptom Score: −0.40**
  Number of Days Use of Breakthrough Medication: −4.38* days
Asthmatic children [1]; 1.0 mg QD
  proportion of patients discontinuing due to worsening asthma: 21.1%
  total proportion of patients who were discontinued: 31%
Asthmatic children [1]; four regimens, 12 weeks
  number of patients with clinically significant changes in nasal or oral fungal cultures between treatment groups: no apparent differences
Asthmatic children [1]; in vivo
  type, incidence or severity of adverse events compared to placebo: no clinically relevant differences
  vital signs or physical examination outcomes between treatment groups: no clinically relevant differences
[2]
  HPA-axis suppression (basal and post-ACTH-stimulated plasma cortisol): no evidence of HPA-axis suppression
Asthmatic children [3]; [8]
  Asthma scores: Daytime: −0.57**
  Asthma scores: Nighttime: −0.49***
Asthmatic children [3]; 0.25 mg once a day, adjusted mean change from baseline over 12 weeks, n = 29
  FEV1: -0.01 L
Asthmatic children [3]; 0.25 mg once a day, adjusted mean change from baseline over 12 weeks, n = 44
  Morning PEF: 14.4 L/min
Asthmatic children [3]; 0.25 mg once a day, adjusted mean change from baseline over 12 weeks, n = 91
  Days of use of bronchodilator: −6.26* days
Asthmatic children [3]; 0.25 mg once a day
  proportion of patients discontinuing due to worsening asthma: 14%
  total proportion of patients who were discontinued: 19%
Asthmatic children [3]; [9]
  Asthma scores: Daytime: −0.46*
  Asthma scores: Nighttime: −0.42**
Asthmatic children [3]; 0.5 mg once a day, adjusted mean change from baseline over 12 weeks, n = 28
  FEV1(L): 0.03* L
Asthmatic children [3]; 0.5 mg once a day, adjusted mean change from baseline over 12 weeks, n = 41
  Morning PEF: 6.5 L/min
Asthmatic children [3]; 0.5 mg once a day, adjusted mean change from baseline over 12 weeks, n = 82
  Days of use of bronchodilator: −5.31* days
Asthmatic children [3]; 0.5 mg once a day
  proportion of patients discontinuing due to worsening asthma: 17%
  total proportion of patients who were discontinued: 24%
Asthmatic children [3]; [10]
  Asthma scores: Daytime: −0.50*
  Asthma scores: Nighttime: −0.42**
Asthmatic children [3]; 1.0 mg once a day, adjusted mean change from baseline over 12 weeks, n = 33
  FEV1(L): 0.03* L
Asthmatic children [3]; 1.0 mg once a day, adjusted mean change from baseline over 12 weeks, n = 55
  Morning PEF: 10.9 L/min
Asthmatic children [3]; 1.0 mg once a day, adjusted mean change from baseline over 12 weeks, n = 93
  Days of use of bronchodilator: −5.98* days
Asthmatic children [3]; 1.0 mg once a day
  proportion of patients discontinuing due to worsening asthma: 13%
Asthmatic children [3]; 1.0 mg once a day, p=0.020
  total proportion of patients who were discontinued: 14%
Asthmatic children [3]; in vivo
  vital signs or physical examination differences between treatment groups: no clinically relevant differences
Asthmatic children [3]; three doses once a day, 12 weeks
  clinically significant changes in nasal or oral fungal cultures between treatment groups: no clinically relevant differences
[4]
  HPA-axis suppression (basal and post-ACTH-stimulated plasma cortisol): no evidence of HPA-axis suppression
